{"source": "patent US9150734B2", "about": "“Zwitterionic lignin derivatives for marine antifouling coatings” (Empire Technology Development LLC, priority 2012, dated 2015)", "origin": "cited, not measured here", "system": "diatom species", "details": "variety of diatom species, various concentrations; variation between species", "data": [{"substance": "benzalkonium chloride", "values": [{"measurement": "concentration at which all diatoms were killed", "result": "less than 0.001%"}]}]}
